Tests used:
[1] = Spectral and fluorescent parameters of chlorin e6 conjugate in different systems; format: physicochemical
Experimental: Pigment-protein complexes have been formed by adding to the solution of human serum albumin (HAS) a specific amount of photosensitizer dissolved in the same buffer. […] Similarly, the photosensitizer was included in detergent micelle (Triton X-100, C=10^−3M).
The electronic absorption spectra of the subject solution were recorded on Specord UV-Vis. The fluorescence spectra and value of degree of fluorescence polarization (P) were recorded on an automatic spectrofluorimeter (Institute of Physics). Life time of photosensitizer fluorescence (ts) was estimated using an impulse fluorometer operating in the mode of photons counting.
The main feature of the absorption spectrum is intensive (ε=4.8 10^4 M^−1cm^−1) Qx (0-0) band at 660 nm, which falls into the spectral window of the majority of biological tissues.
Complex formation of chlorin e6 conjugate, and HSA, liposomes or detergent micelles leads to bathochromic shift in the absorption and fluorescence spectra of pigment. However, an increase in fluorescence photoresponse (B) was observed, which correlates with the growth of life time (ts) without changing of the Kravec integral value.

[2] = Photophysical parameters (triplet state, intercombinative conversion); format: physicochemical
Experimental: Values of ? and ? were determined after substantially transferring of all molecules of the studied substance in excited triplet state. In such conditions, ΔD=C Δε^Tl, wherein C indicates the molar concentration of the substance in solution, and l indicates the length of the optical way. As the standard to estimate γ, Pd(II)-octa ethyl porphyrin (Pd(II)-OEP) was selected, for which the γ value in benzol was considered as equal to one.

[3] = Generation of singlet oxygen (luminescence at 1270 nm); format: physicochemical; conditions: air saturated buffer solution, room temperature
Experimental: Based on new Hamamatsu FEU with InP/InGaAsP semi-conductor photocathodes, a highly sensitive laser fluorometer for registration of luminescence signals in the range of 950-1400 nm with nanosecond time resolution was used.
Photoresponse of this process (φΔ) was measured by a relative method through integral intensity of singlet oxygen luminescence at a wavelength of 1270 nm. Excitation was conducted at a wavelength of 531 nm (pulse energy 4 microJ, frequency 1kHz). Tests were made in air saturated buffer solutions at room temperature. […] The φΔ in D2O was considered as 0.7.
To analyze kinetic curves of singlet oxygen luminescence, the following function was used:
wherein A is a coefficient depending on initial concentrations of interacted reagents, and k1 and k2 are constants of luminescence signal increase and extinction, respectively.
In the case when the deactivation rate constant Kτ of the photosensitizer triplet state exceeds the deactivation rate constant KΔ of the molecular oxygen […] state, the constant of increase k1 corresponds to Kτ, and constant of extinction k2 corresponds to KΔ. In the case of Kτ<KΔ, inversion of the kinetics of singlet oxygen luminescence occurs. In this case, k2=Kτ and k1=KΔ. […] Thus, based on kinetic data, the life times of singlet oxygen and triplet state can be calculated.

sarcoma M-1 = test: Necrotic area in sarcoma M-1 after PDT; format: in vivo, rats; conditions: 10.0 mg/kg, 1 hr exposure after application
Experimental: After fixation, transverse sections of the tumor nodule in its highest diameter were made, and pictures were taken by a camera connected to a computer.
For quantitative assessment of necroses formed after PDT, computer analysis of color tints of histo-topographic tumor slides was performed using a special program.
The program included an algorithm of blue color identification (Evans blue), which stained viable areas of the tumor. Tumor areas killed from direct cytotoxic effect or due to structural-functional disorders of microcirculation were not stained in blue. The ratio of all non-stained dots to the total amount of dots in the fence of the tumor slide was considered to be the destruction efficiency.
For this purpose, a laser medical instrument “ ? 680-2000” (BIOSPEC, Moscow) was used to perform the exposure at a wavelength of 670 nm in a dose of 100 J/cm^2. The power density was 0.51 W/cm^2, the output power was 0.4 W, and the spot light diameter was 1 cm. Time of exposure was […]. Monitoring over radiating power was conducted by a universal power meter included in the laser device “ ? 680-2000”.

## [γ-(6-aminohexyl)folic acid]-chlorin e6 [chlorin e6 conjugate]
[1]; Dimethyl sulfoxide
  1^00fl: 672 nm
  absorption maximum wavelength (Qx 0-0 band): 661 Nm
[1]; H2O, pH 8.1
  1^00fl: 664 nm
  absorption maximum wavelength (Qx 0-0 band): 657 Nm
[1]; HSA, pH 8.1
  1^00fl: 669 nm
  absorption maximum wavelength (Qx 0-0 band): 664 Nm
[1]; Liposomes, pH 8.1
  1^00fl: 670 nm
  absorption maximum wavelength (Qx 0-0 band): 665 Nm
[1]; Methanol
  1^00fl: 667 nm
  absorption maximum wavelength (Qx 0-0 band): 662 Nm
[1]; Pyridine
  1^00fl: 673 nm
  absorption maximum wavelength (Qx 0-0 band): 666 Nm
[1]; Tetrahydrofuran
  1^00fl: 673 nm
  absorption maximum wavelength (Qx 0-0 band): 667 Nm
[1]; Triton X-100, pH 8.1
  1^00fl: 670 nm
  absorption maximum wavelength (Qx 0-0 band): 665 Nm
[2]; H2O, pH 8.1
  τt (lifetime of excited triplet state, oxygen saturated): 2.5 μs
  τt^0 (lifetime of excited triplet state, deoxygenated): 170 μs
[2]; HSA, H2O, pH 8.1
  τt (lifetime of excited triplet state, oxygen saturated): 14.7 μs
  τt^0 (lifetime of excited triplet state, deoxygenated): 700 μs
[2]; Liposomes, H2O, pH 8.1
  τt (lifetime of excited triplet state, oxygen saturated): 1.4 μs
  τt^0 (lifetime of excited triplet state, deoxygenated): 70 μs
[2]; Liposomes, H2O, pH 8.1, standard Pd(II)-OEP
  γ (photoresponse of intercombinative conversion): 078
[2]; Pyridine
  τt (lifetime of excited triplet state, oxygen saturated): 0.3 μs
  τt^0 (lifetime of excited triplet state, deoxygenated): 140 μs
[2]; Triton X-100
  τt (lifetime of excited triplet state, oxygen saturated): 2.6 μs
  τt^0 (lifetime of excited triplet state, deoxygenated): 230 μs
[3]
  τt (life time in the triplet state) from singlet oxygen luminescence kinetics: 2.0±0.2 microsec.
  τΔ (life time of singlet oxygen) from luminescence kinetics: 3.6±0.2 microsec.
Sarcoma M-1
  anti-tumor effect of PDT: most prominent anti-tumor effect

Source: patent US20120035180A1, “PHARMACEUTICAL COMPOSITION FOR TREATING CANCER COMPRISING CHLORIN E6-FOLIC ACID CONJUGATE COMPOUND AND CHITOSAN” (priority 2009, published 2012)
